Laboratory results taken from patent US20220363662A1, “COMPOUNDS AS LXR AGONISTS” (Integral Biosciences Privated Limited, priority 2021, published 2022).

These compounds were tested against T1, LXR beta (Homo sapiens, UniProt P55055) (assay: LXR beta agonist assay (Lanthascreen TR-FRET)). Settings: LXR beta-LBD 5 nM, read-out: LXR-β EC50.
T1 construct: 5 μL of 4×LXR beta-LBD was added to each well (final concentration 5 nM); purchased Thermofisher PV4658
T1 sequence (P55055 222-460 limits assumed): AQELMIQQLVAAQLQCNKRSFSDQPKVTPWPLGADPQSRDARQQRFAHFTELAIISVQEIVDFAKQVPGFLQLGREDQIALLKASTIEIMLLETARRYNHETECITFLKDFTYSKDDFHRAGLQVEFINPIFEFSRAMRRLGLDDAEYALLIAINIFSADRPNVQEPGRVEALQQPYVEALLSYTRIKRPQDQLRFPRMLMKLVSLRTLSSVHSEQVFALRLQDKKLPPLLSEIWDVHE
Format: biochemical
Protocol: EC50 values of compounds against LXR beta were determined at Integral BioSciences (India) using Lanthascreen TR-FRET (Thermofisher, Cat #PV4658). Assay was performed in a 20 μL final volume in a Black 384-well plate (Corning, Cat #4511). Dose response curve for the compounds were prepared in duplicates with starting concentration at 30 μM and a three-fold titration was performed. The reaction buffer consisted of TR-FRET Coregulator Buffer G. To the compound dilution, 5 μL of 4×LXR beta-LBD was added to each well (final concentration 5 nM). An equal volume (5 μL) containing 4×Fl-D22/Tb-anti GST antibody (final concentration 100 nM/10 nM) was added to initiate the enzyme reaction and the reaction was incubated for 60 min at 22° C. after which the plates were read using BioTek Plate reader for TR-FRET every hour up to 4 hours.
Analysis was done using the standard curve by non-linear regression, variable slope inhibitor curve fits (Graph-Pad Prism) and EC50's of compounds were determined wherever possible.

| Compound | EC50 |
| --- | --- |
| CN(C)C(=O)c1ccc(NC2CN(C3CCN(C(=O)[C@](O)(c4ccccc4)C(F)(F)F)CC3)C2)cc1Cl (single isomer, unassigned) [Compound 1.9] | > 30 µM |
| CN(C)C(=O)c1ccc(NC2CN(C3CCN(C(=O)[C@](O)(c4ccccc4)C(F)(F)F)CC3)C2)cc1F (single isomer, unassigned) [Compound 1.86] | > 30 µM |
| CN(C)C(=O)c1ccc(NC2CN(C3CCN(C(=O)[C@](O)(c4ccccc4)C(F)(F)F)CC3)C2)cc1F (single isomer, unassigned) [Compound 1.87] | > 30 µM |
| CCN(CC)C(=O)c1ccc(NC2CN(C3CCN(C(=O)[C@@](O)(c4ccccc4)C(F)(F)F)CC3)C2)cc1Cl (single isomer, unassigned) [Compound 1.96] | 4.57 µM |
| CCN(CC)C(=O)c1ccc(NC2CN(C3CCN(C(=O)[C@](O)(c4ccccc4)C(F)(F)F)CC3)C2)cc1Cl (single isomer, unassigned) [Compound 1.97] | 1.17 µM |
| O=C(c1ccc(NC2CN(C3CCN(C(=O)[C@@](O)(c4ccccc4)C(F)(F)F)CC3)C2)cc1Cl)N1CCCC1 (single isomer, unassigned) [Compound 1.99] | 1.82 µM |
| CC(=O)N1CCN(C(=O)c2ccc(NC3CN(C4CCN(C(=O)[C@@](O)(c5ccccc5)C(F)(F)F)CC4)C3)cc2Cl)CC1 (single isomer, unassigned) [Compound 1.105] | 2.25 µM |
| O=C(NCC(F)F)c1ccc(NC2CN(C3CCN(C(=O)[C@](O)(c4ccccc4)C(F)(F)F)CC3)C2)cc1Cl (single isomer, unassigned) [Compound 1.106] | 2.71 µM |
| O=C(NCC(F)F)c1ccc(NC2CN(C3CCN(C(=O)[C@@](O)(c4ccccc4)C(F)(F)F)CC3)C2)cc1Cl (single isomer, unassigned) [Compound 1.107] | 1.3 µM |
| O=C(c1ccc(NC2CN(C3CCN(C(=O)[C@](O)(c4ccccc4)C(F)(F)F)CC3)C2)cc1Cl)N1CCCCC1 (single isomer, unassigned) [Compound 1.108] | 1.57 µM |
| O=C(c1ccc(NC2CN(C3CCN(C(=O)[C@](O)(c4ccccc4)C(F)(F)F)CC3)C2)cc1Cl)N1CCCCC1 (single isomer, unassigned) [Compound 1.109] | 3.01 µM |
| CN(C)C(=O)c1ccc(NC2CN(C3CCN(C(=O)[C@@](O)(c4ccc(F)cc4)C(F)(F)F)CC3)C2)cc1Cl (single isomer, unassigned) [Compound 1.116] | 9.85 µM |
| CN(C)C(=O)c1ccc(NC2CN(C3CCN(C(=O)[C@@](O)(c4cccc(Cl)c4)C(F)(F)F)CC3)C2)cc1Cl (single isomer, unassigned) [Compound 1.118] | 0.241 µM |
| Cc1cccc([C@](O)(C(=O)N2CCC(N3CC(Nc4ccc(C(=O)N(C)C)c(Cl)c4)C3)CC2)C(F)(F)F)c1 (single isomer, unassigned) [Compound 1.121] | 2.85 µM |
| CN(C)C(=O)c1ccc(NC2CN(C3CCN(S(=O)(=O)c4ccccc4Cl)CC3)C2)cc1Cl [Compound 1.2, 2-chloro-4-(1-(1-(2-chlorophenylsulfonyl)piperidin-4-yl)azetidin-3-ylamino)-N,N-dimethylbenzamide] | 3.34 µM |
| CN(C)C(=O)c1ccc(-c2nnc(C3CCN(S(=O)(=O)c4ccccc4Cl)CC3)s2)cc1Cl [Compound 1.11, 2-chloro-4-(5-(1-(2-chlorophenylsulfonyl)piperidin-4-yl)-1,3,4-thiadiazol-2-yl)-N,N-dimethylbenzamide] | 3.09 µM |
| CN(C)C(=O)c1ccc(NC2CN(C3CCN(S(=O)(=O)c4ccccc4C#N)CC3)C2)cc1Cl [Compound 1.13, 2-chloro-4-(1-(1-(2-cyanophenylsulfonyl)piperidin-4-yl)azetidin-3-ylamino)-N,N-dimethylbenzamide] | 4.43 µM |

| Compound | EC50 |
| --- | --- |
| N#Cc1ccccc1S(=O)(=O)N1CCC(C2CCN(c3cc(Cl)c4c(=O)[nH]ccc4c3)CC2)CC1 [Compound 1.15, 2-(1′-(8-chloro-1-oxo-1,2-dihydroisoquinolin-6-yl)-4,4′-bipiperidin-1-ylsulfonyl)benzonitrile] | 2.74 µM |
| O=C(N1CCC(C2CCN(c3cc(Cl)c4c(=O)[nH]ccc4c3)CC2)CC1)C1(c2ccccc2)CCC1 [Compound 1.22, 8-chloro-6-(1′-(1-phenylcyclobutanecarbonyl)-[4,4′-bipiperidin]-1-yl)isoquinolin-1(2H)-one] | 2.4 µM |
| CC(C)(C(=O)N1CCC(C2CCN(c3cc(Cl)c4c(=O)[nH]ccc4c3)CC2)CC1)c1ccccc1 [Compound 1.24, 8-chloro-6-(1′-(2-methyl-2-phenylpropanoyl)-4,4′-bipiperidin-1-yl)isoquinolin-1(2H)-one] | 2.48 µM |
| CN(C)C(=O)c1ccc(-c2ccn(C3CCN(C(=O)C(O)(c4ccccc4)C(F)(F)F)CC3)c(=O)c2)cc1Cl (stereo not drawn) [Compound 1.27, 2-chloro-N,N-dimethyl-4-(2-oxo-1-(1-(3,3,3-trifluoro-2-hydroxy-2-phenylpropanoyl)piperidin-4-yl)-1,2-dihydropyridin-4-yl)benzamide] | > 30 µM |
| CN(C)C(=O)c1ccc(N(C)C2CN(C3CCN(C(=O)C4(c5ccccc5)CCC4)CC3)C2)cc1Cl [Compound 1.31, 2-chloro-N,N-dimethyl-4-(methyl(1-(1-(1-phenylcyclobutanecarbonyl)piperidin-4-yl)azetidin-3-yl)amino)benzamide] | 3.23 µM |
| CN(C)C(=O)c1ccc(N(C)C2CN(C3CCN(C(=O)[C@](O)(c4ccccc4)C(F)(F)F)CC3)C2)cc1Cl [Compound 1.32, (R)-2-chloro-N,N-dimethyl-4-(methyl(1-(1-(3,3,3-trifluoro-2-hydroxy-2-phenylpropanoyl)piperidin-4-yl)azetidin-3-yl)amino)benzamide] | 7.23 µM |
| CN(C)C(=O)c1ccc(NC2CN(C3CCN(C(=O)C4(c5ccc(Cl)cc5)CCC4)CC3)C2)cc1Cl [Compound 1.33, 2-chloro-4-(1-(1-(1-(4-chlorophenyl)cyclobutanecarbonyl)piperidin-4-yl)azetidin-3-ylamino)-N,N-dimethylbenzamide] | 4.3 µM |
| CN(C)C(=O)c1ccc(NC2CN(C3CCN(C(=O)C4(c5ccc(F)cc5)CCCC4)CC3)C2)cc1Cl [Compound 1.34, 2-chloro-4-(1-(1-(1-(4-fluorophenyl)cyclopentanecarbonyl)piperidin-4-yl)azetidin-3-ylamino)-N,N-dimethylbenzamide] | 3.41 µM |
| CN(C)C(=O)c1ccc(-c2nnc(C3=CCN(C(=O)C(C)(C)C)CC3)s2)cc1Cl [Compound 1.59, 2-chloro-N,N-dimethyl-4-(5-(1-pivaloyl-1,2,3,6-tetrahydropyridin-4-yl)-1,3,4-thiadiazol-2-yl)benzamide] | 5.45 µM |
| CN(C)C(=O)c1ccc(-c2nnc(C3=CCN(C(=O)C4CCC(F)(F)CC4)CC3)s2)cc1Cl [Compound 1.60, 2-chloro-4-(5-(1-(4,4-difluorocyclohexanecarbonyl)-1,2,3,6-tetrahydropyridin-4-yl)-1,3,4-thiadiazol-2-yl)-N,N-dimethylbenzamide] | 1.51 µM |
| CN(C)C(=O)c1ccc(-c2nnc(C3=CCN(S(=O)(=O)c4cc(Cl)ccc4Cl)CC3)s2)cc1Cl [Compound 1.61, 2-chloro-4-(5-(1-(2,5-dichlorophenylsulfonyl)-1,2,3,6-tetrahydropyridin-4-yl)-1,3,4-thiadiazol-2-yl)-N,N-dimethylbenzamide] | > 10 µM |
| COc1ncc(Cl)cc1S(=O)(=O)N1CC=C(c2nnc(-c3ccc(C(=O)N(C)C)c(Cl)c3)s2)CC1 [Compound 1.62, 2-chloro-4-(5-(1-(5-chloro-2-methoxypyridin-3-ylsulfonyl)-1,2,3,6-tetrahydropyridin-4-yl)-1,3,4-thiadiazol-2-yl)-N,N-dimethylbenzamide] | > 10 µM |
| CN(C)C(=O)c1ccc(NC2CN(C3CCN(C(=O)C4CCC(F)(F)CC4)CC3)C2)cc1Cl [Compound 1.63, 2-chloro-4-(1-(1-(4,4-dfluorocyclohexanecarbonyl)piperidin-4-yl)azetidin-3-ylamino)-N,N-dimethylbenzamide] | > 30 µM |
| COc1cccc(C2(C(=O)N3CC=C(c4nnc(-c5ccc(C(=O)N(C)C)c(Cl)c5)s4)CC3)CCCC2)c1 [Compound 1.64, 2-chloro-4-(5-(1-(1-(3-methoxyphenyl)cyclopentanecarbonyl)-1,2,3,6-tetrahydropyridin-4-yl)-1,3,4-thiadiazol-2-yl)-N,N-dimethylbenzamide] | > 30 µM |
| CN(C)C(=O)c1ccc(-c2nnc(C3=CCN(C(=O)C45CC6CC(CC(C6)C4)C5)CC3)s2)cc1Cl [Compound 1.65, 4-{5-[1-(adamantane-1-carbonyl)-1,2,3,6-tetrahydropyridin-4-yl]-1,3,4-thiadiazol-2-yl}-2-chloro-N,N-dimethylbenzamide] | 3.96 µM |
| CN(C)C(=O)c1ccc(NC2CN(C3CCN(C(=O)C45CC6CC(CC(C6)C4)C5)CC3)C2)cc1Cl [Compound 1.66, 4-({1-[1-(adamantane-1-carbonyl)piperidin-4-yl]azetidin-3-yl}amino)-2-chloro-N,N-dimethylbenzamide] | > 20.4 µM |
